Source: PubChem BioAssay AID248 (DTP/NCI, 2004)
Several values for one entry are separate records, joined by “and”; a condition that tells them apart may be missing. Equal entries are not always repeated. Toxic doses and inconclusive results are not listed. Cut-off read from the data, not from the text of the source: active = T/C of 150% or more; inactive = T/C below 125%.

Tested on: L1210 leukemia ip in BDF1 mice, survival T/C
Test: NCI In Vivo Anticancer Drug Screen. Data for tumor model L1210 Leukemia (intraperitoneal) in B6D2F1 (BDF1) mice
Conditions: endpoint: mean survival time, higher = longer survival
Outline: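 Antitumor effect is assessed in tumor-bearing animals. Survival in the compound arm is compared with a vehicle-dosed control arm and expressed as their quotient.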

[1] = dose: 100.0 mg/kg/injection, schedule: Q01DX001 (ip), vehicle: carboxymethylcellulose (CMC)
[2] = dose: 200.0 mg/kg/injection, schedule: Q01DX001 (ip), vehicle: carboxymethylcellulose (CMC)
[3] = dose: 400.0 mg/kg/injection, schedule: Q01DX001 (ip), vehicle: carboxymethylcellulose (CMC)
[4] = dose: 100.0 mg/kg/injection, schedule: Q04DX003 (ip), vehicle: saline with Tween-80
[5] = dose: 200.0 mg/kg/injection, schedule: Q04DX003 (ip), vehicle: saline with Tween-80
[6] = dose: 100.0 mg/kg/injection, schedule: Q01DX009 (ip), vehicle: saline
[7] = dose: 100.0 mg/kg/injection, schedule: Q04DX003 (ip), vehicle: saline
[8] = dose: 200.0 mg/kg/injection, schedule: Q01DX009 (ip), vehicle: saline
[9] = dose: 200.0 mg/kg/injection, schedule: Q04DX003 (ip), vehicle: saline
[10] = dose: 100.0 mg/kg/injection, schedule: Q01DX001 (ip), vehicle: Klucel (hydroxypropylcellulose) (HPC)
[11] = dose: 200.0 mg/kg/injection, schedule: Q01DX001 (ip), vehicle: Klucel (hydroxypropylcellulose) (HPC)
[12] = dose: 50.0 mg/kg/injection, schedule: Q01DX009 (ip), vehicle: saline with Tween-80
[13] = dose: 100.0 mg/kg/injection, schedule: Q01DX009 (ip), vehicle: saline with Tween-80
[14] = dose: 50.0 mg/kg/injection, schedule: Q01DX009 (ip), vehicle: saline
[15] = dose: 100.0 mg/kg/injection, schedule: Q04DX002 (ip), vehicle: saline
[16] = dose: 200.0 mg/kg/injection, schedule: Q04DX002 (ip), vehicle: saline
[17] = dose: 100.0 mg/kg/injection, schedule: Q01DX001 (ip), vehicle: other
[18] = dose: 400.0 mg/kg/injection, schedule: Q01DX001 (ip), vehicle: other

Measured: T/C

CC(=O)Nc1c(Br)cc2c(c1Br)C(=O)c1ccccc1-2
inactive: [1] 97 % of control | [2] 87 % of control | [3] 97 % of control

COc1cc(Nc2nc(N)ncc2[N+](=O)[O-])cc(OC)c1OC
inactive: [4] 92 % of control | [5] 87 % of control | dose: 400.0 mg/kg/injection, schedule: Q04DX003 (ip), vehicle: saline with Tween-80 88 % of control

CC1=NC(C(=O)O)C(=O)O1 (stereo unspecified)
inactive: [6] 98 % of control | [7] 105 % of control | [8] 93 % of control | [9] 97 % of control | dose: 400.0 mg/kg/injection, schedule: Q04DX003 (ip), vehicle: saline 103 % of control

O=[N+]([O-])c1ccc2c(c1)-c1[nH]c3ccccc3c1CS2
inactive: dose: 100.0 mg/kg/injection, schedule: Q01DX001 (ip), vehicle: acetone 100 % of control | dose: 200.0 mg/kg/injection, schedule: Q01DX001 (ip), vehicle: acetone 92 % of control | dose: 400.0 mg/kg/injection, schedule: Q01DX001 (ip), vehicle: acetone 92 % of control

O=C(O)c1ccc(CC2CCCC2)cc1
inactive: [10] 96 % of control | dose: 100.0 mg/kg/injection, schedule: Q04DX003 (ip), vehicle: Klucel (hydroxypropylcellulose) (HPC) 93 % of control | [11] 103 % of control | dose: 200.0 mg/kg/injection, schedule: Q04DX003 (ip), vehicle: Klucel (hydroxypropylcellulose) (HPC) 93 % of control | dose: 400.0 mg/kg/injection, schedule: Q01DX001 (ip), vehicle: Klucel (hydroxypropylcellulose) (HPC) 97 % of control | dose: 400.0 mg/kg/injection, schedule: Q04DX003 (ip), vehicle: Klucel (hydroxypropylcellulose) (HPC) 98 % of control

Cc1ccc(S(=O)(=O)Oc2ccccc2NC(=O)c2ccccc2)cc1
inactive: [12] 96 % of control | [13] 96 % of control

C[n+]1ccccc1/C=N/O
inactive: dose: 25.0 mg/kg/injection, schedule: Q01DX009 (ip), vehicle: saline 105 % of control | dose: 33.0 mg/kg/injection, schedule: Q01DX009 (ip), vehicle: saline 100 % of control | [14] 98 % of control | dose: 75.0 mg/kg/injection, schedule: Q01DX009 (ip), vehicle: Klucel (hydroxypropylcellulose) (HPC) 102 % of control | dose: 75.0 mg/kg/injection, schedule: Q01DX009 (ip), vehicle: saline 98 % of control | dose: 75.0 mg/kg/injection, schedule: Q04DX003 (ip), vehicle: saline 91 % of control | [6] 100 % of control and 103 % of control | [7] 103 % of control | dose: 150.0 mg/kg/injection, schedule: Q01DX009 (ip), vehicle: Klucel (hydroxypropylcellulose) (HPC) 108 % of control | dose: 150.0 mg/kg/injection, schedule: Q04DX003 (ip), vehicle: saline 109 % of control | [8] 97 % of control | [9] 94 % of control | dose: 300.0 mg/kg/injection, schedule: Q04DX003 (ip), vehicle: saline 98 % of control

NC(=S)N/N=C\c1c[nH]c2nccnc12
inactive: dose: 25.0 mg/kg/injection, schedule: Q01DX009 (ip), vehicle: water 108 % of control | dose: 50.0 mg/kg/injection, schedule: Q01DX009 (ip), vehicle: water 97 % of control | dose: 100.0 mg/kg/injection, schedule: Q01DX009 (ip), vehicle: water 102 % of control | dose: 200.0 mg/kg/injection, schedule: Q01DX009 (ip), vehicle: water 90 % of control | dose: 400.0 mg/kg/injection, schedule: Q01DX009 (ip), vehicle: water 88 % of control

C#C/C(CCC)=N\Nc1ccc([N+](=O)[O-])cc1[N+](=O)[O-]
inactive: dose: 50.0 mg/kg/injection, schedule: Q04DX002 (ip), vehicle: saline with Tween-80 88 % of control | dose: 100.0 mg/kg/injection, schedule: Q04DX002 (ip), vehicle: saline with Tween-80 94 % of control | dose: 200.0 mg/kg/injection, schedule: Q04DX002 (ip), vehicle: saline with Tween-80 88 % of control

Cc1cccc2c(=O)c(C(=O)O)cn(C)c12
inactive: dose: 50.0 mg/kg/injection, schedule: Q04DX002 (ip), vehicle: saline 107 % of control | [15] 107 % of control | [16] 107 % of control

c1ccc(C[N+]23CC[N+](Cc4ccccc4)(CC2)CC3)cc1
inactive: [14] 107 % of control | [6] 111 % of control | [7] 97 % of control | [8] 114 % of control | [9] 100 % of control

C/C(=N\N(Cc1ccc(CN(/N=C(\C)c2ccccc2)c2ccccc2)cc1)c1ccccc1)c1ccccc1
inactive: [17] 86 % of control | dose: 200.0 mg/kg/injection, schedule: Q01DX001 (ip), vehicle: other 89 % of control | [18] 89 % of control

CC(=O)C(Sc1ccccc1[N+](=O)[O-])C(C)=O.[Cr]
inactive: dose: 50.0 mg/kg/injection, schedule: Q01DX001 (ip), vehicle: other 94 % of control | [17] 88 % of control | [18] 88 % of control

O=C1OC(/C=C/c2ccccc2)=NC/1=C\c1cccc([N+](=O)[O-])c1
inactive: dose: 25.0 mg/kg/injection, schedule: Q04DX002 (ip), vehicle: Klucel (hydroxypropylcellulose) (HPC) 93 % of control | dose: 50.0 mg/kg/injection, schedule: Q04DX002 (ip), vehicle: Klucel (hydroxypropylcellulose) (HPC) 104 % of control | dose: 100.0 mg/kg/injection, schedule: Q04DX002 (ip), vehicle: Klucel (hydroxypropylcellulose) (HPC) 89 % of control

O=c1c(N=Nc2ccc(Br)cc2)c(O)n(-c2ccc(I)cc2)c(=S)n1-c1ccccc1
inactive: dose: 50.0 mg/kg/injection, schedule: Q01DX001 (ip), vehicle: Klucel (hydroxypropylcellulose) (HPC) 97 % of control | [10] 108 % of control | [11] 121 % of control

CS(=O)(=O)Oc1c(Cl)c(Cl)c(OS(C)(=O)=O)c(Cl)c1Cl
inactive: [1] 101 % of control | [2] 92 % of control | [3] 98 % of control

NC(N)=NC(N)=Nc1ccccc1CS
inactive: dose: 75.0 mg/kg/injection, schedule: Q01DX001 (ip), vehicle: saline 101 % of control | dose: 150.0 mg/kg/injection, schedule: Q01DX001 (ip), vehicle: saline 102 % of control

S=c1[nH]c2ccccc2s1
inactive: dose: 25.0 mg/kg/injection, schedule: Q01DX009 (ip), vehicle: saline with Tween-80 94 % of control | [12] 105 % of control | dose: 100.0 mg/kg/injection, schedule: Q01DX009 (ip), vehicle: Klucel (hydroxypropylcellulose) (HPC) 88 % of control | [13] 109 % of control | [15] 115 % of control | dose: 100.0 mg/kg/injection, schedule: Q04DX003 (ip), vehicle: other 96 % of control | [4] 96 % of control | dose: 200.0 mg/kg/injection, schedule: Q01DX009 (ip), vehicle: Klucel (hydroxypropylcellulose) (HPC) 100 % of control | [16] 112 % of control | dose: 200.0 mg/kg/injection, schedule: Q04DX003 (ip), vehicle: other 96 % of control | [5] 100 % of control | dose: 400.0 mg/kg/injection, schedule: Q01DX009 (ip), vehicle: Klucel (hydroxypropylcellulose) (HPC) 95 % of control | dose: 400.0 mg/kg/injection, schedule: Q04DX003 (ip), vehicle: other 101 % of control
